According to patent US9987332B2, “Pharmaceutical composition for use in the treatment of a neurodegenerative disease” (SANOFI-AVENTIS DEUTSCHLAND GMBH, priority 2011, dated 2018):

Key:
[1] = Kastin et al 2001; McClean et al 2011; cited from earlier work
[2] = Uptake by the brain: levels in mouse brain tissue after i.p. injection; type: in vivo; conditions: 2.5 nmol/kg bw ip.
Procedure: Values are the mean±S.E.M. *p<0.05, **p<0.01.
Values are the mean±S.E.M. *p<0.05.
3 doses (2.5 nmol/kg bw, 25 nmol/kg bw and 250 nmol/kg bw, ip.) were tested, and the levels found in mouse brain tissue 30 min and 3 h post injection were examined.

Levels in the brain at the lowest dose [2]	Compound	Crossing of the blood brain barrier (BBB) [1]
did not show an increase	CCCCCCCCCCCCCCCC(=O)N[C@@H](CCC(=O)NCCCC[C@H](NC(=O)[C@H](C)NC(=O)[C@H](C)NC(=O)[C@H](CCC(N)=O)NC(=O)CNC(=O)[C@H](CCC(=O)O)NC(=O)[C@H](CC(C)C)NC(=O)[C@H](Cc1ccc(O)cc1)NC(=O)[C@H](CO)NC(=O)[C@H](CO)NC(=O)[C@@H](NC(=O)[C@H](CC(=O)O)NC(=O)[C@H](CO)NC(=O)[C@@H](NC(=O)[C@H](Cc1ccccc1)NC(=O)[C@@H](NC(=O)CNC(=O)[C@H](CCC(=O)O)NC(=O)[C@H](C)NC(=O)[C@@H](N)Cc1cnc[nH]1)[C@@H](C)O)[C@@H](C)O)C(C)C)C(=O)N[C@@H](CCC(=O)O)C(=O)N[C@@H](Cc1ccccc1)C(=O)N[C@H](C(=O)N[C@@H](C)C(=O)N[C@@H](Cc1c[nH]c2ccccc12)C(=O)N[C@@H](CC(C)C)C(=O)N[C@H](C(=O)N[C@@H](CCCNC(=N)N)C(=O)NCC(=O)N[C@@H](CCCNC(=N)N)C(=O)NCC(=O)O)C(C)C)[C@@H](C)CC)C(=O)O [liraglutide, Arg^34,Lys^26(N^ε(γ-glutamyl(N^α-hexadecanoyl)))GLP-1(7-37)]	have been shown to cross the blood brain barrier
–	GLP-1: 30-amino acid peptide hormone encoded in the proglucagon gene	have been shown to cross the blood brain barrier
